Results as given in patent US20250136601A1 (priority 2022, published 2025).
pEC50, pKi: −log10 of the molar value. Read-outs that look alike come from different tables or passages of the source.

Key:
[1] = molecular target: T1, 5-HT2A receptor (Homo sapiens (Human), UniProt P28223); experiment: radioligand competitive binding assay, [3H]-LSD, 293T membranes
[2] = molecular target: T1, 5-HT2A receptor; experiment: cell-based; format: cell-based; conditions: for Emax: HEK-293T, read-out: β-arrestin2 signaling agonistic activity (percentage in parentheses); for pathway selectivity: β-arrestin2 recruitment versus G protein signaling: without activating the G protein signaling pathway; for Gq signaling agonistic activity (percentage in parentheses): value in parentheses
Procedure: On the second day, the confluent cells from a 6 cm culture dish were digested and reseeded into a 96-well plate at a volume of 100 μL of culture medium per well. On the third day, the drugs were added for testing. The 96-well plate was taken out from the cell incubator to decant the culture medium. 40 μL of the substrate coelenterazine 400a (final concentration 5 μM) was added to each well, and then 20 μL of different drugs were added sequentially from left to right, ensuring that the final concentration of the drug decreased gradually from bottom to top, with two replicates per treatment. Finally, the prepared samples were loaded on a plate reader for signal quantification. The readout values reflected the recruitment of β-arrestin2 to the membrane or the dissociation of G protein trimer. The former indicated the degree of activation of the downstream β-arrestin2 signaling pathway mediated by the 5-HT2A receptor, and the latter indicated the degree of activation of the downstream G protein signaling pathway mediated by the 5-HT2A receptor.

[3] = affinity for the 5-HT2A receptor, [3H]-LSD
[4] = first value of cell, NA = no agonistic activity, read-out: Gq signaling agonistic activity (potency)
[5] = first value of cell, NA = no agonistic activity, read-out: β-arrestin2 signaling agonistic activity (potency)

T1 sequence (P28223 whole entry): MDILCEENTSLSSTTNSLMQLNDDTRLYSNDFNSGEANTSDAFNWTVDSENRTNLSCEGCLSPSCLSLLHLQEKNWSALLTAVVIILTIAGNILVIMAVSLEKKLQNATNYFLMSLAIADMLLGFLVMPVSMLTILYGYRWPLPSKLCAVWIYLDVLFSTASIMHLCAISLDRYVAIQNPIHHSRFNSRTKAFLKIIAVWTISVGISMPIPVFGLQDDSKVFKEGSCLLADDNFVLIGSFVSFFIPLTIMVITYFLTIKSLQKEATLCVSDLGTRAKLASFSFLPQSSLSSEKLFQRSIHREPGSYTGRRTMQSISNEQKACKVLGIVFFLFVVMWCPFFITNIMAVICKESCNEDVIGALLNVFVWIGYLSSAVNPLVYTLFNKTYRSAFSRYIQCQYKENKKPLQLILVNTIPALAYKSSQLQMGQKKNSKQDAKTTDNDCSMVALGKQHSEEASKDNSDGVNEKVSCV

Compound	pKi [1]	pKi [1, 3]	pEC50 [2]	Emax [2] [%]	pathway selectivity: β-arrestin2 recruitment versus G protein signaling [2]	pEC50 [2, 4]	pEC50 [2, 5]	Gq signaling agonistic activity (percentage in parentheses) [2] [%]
COc1ccccc1CCN1CC[C@H]2[C@@H](C1)c1cccc3c1N2CCCN3C (single isomer, unassigned) [Compound I-12]	> 7.00	6.72	–	–	–	–	–	–
COc1ccccc1CCN1CC[C@@H]2[C@H](C1)c1cccc3c1N2CCCN3C (single isomer, unassigned) [Compound I-13]	> 7.00	7.47	6.74	51.4	selectively activate the recruitment of β-arrestin2	–	–	–
COc1ccccc1CCCN1CC[C@H]2[C@@H](C1)c1cccc3c1N2CCCN3C (single isomer, unassigned) [Compound I-14]	> 7.00	–	–	–	–	–	–	–
COc1ccccc1CCCN1CC[C@@H]2[C@H](C1)c1cccc3c1N2CCCN3C (single isomer, unassigned) [Compound I-15]	> 7.00	–	7.01	24.3	–	–	–	–
COc1ccccc1CCCN1CC[C@H]2[C@@H](C1)c1cccc3c1N2CCC3 (single isomer, unassigned) [Compound I-18, 10-(3-(2-methoxyphenyl)propyl)-5,6,7a,8,9,10,11,11a-octahydro-4H-pyrido[3′,4′:4,5]pyrrolo[3,2,1-i]quinoline]	> 7.00	–	–	–	–	–	–	–
COc1ccccc1CCCN1CC[C@@H]2[C@H](C1)c1cccc3c1N2CCC3 (single isomer, unassigned) [Compound I-19]	> 7.00	7.74	6.25	59.4	selectively activate the recruitment of β-arrestin2	–	–	–
COc1ccccc1CCCN1CC[C@H]2[C@@H](C1)c1cccc3c1N2CCCS3 (single isomer, unassigned) [Compound I-26]	> 7.00	7.03	–	–	–	–	–	–
COc1ccccc1CN1CC[C@H]2[C@@H](C1)c1cccc3c1N2CCN3C [Compound I-1]	–	–	–	60.2	–	6.92	6.76	67.0
CN1CCN2c3c(cccc31)[C@@H]1CN(Cc3ccccc3O)CC[C@@H]12 [Compound I-2]	–	–	–	68.4	–	6.51	6.64	65.3
COc1cccc(CCN2CC[C@H]3[C@@H](C2)c2cccc4c2N3CCN4C)c1 [Compound I-4]	> 7.00	–	–	44.2	–	–	–	13.7
COc1ccc(CCN2CC[C@H]3[C@@H](C2)c2cccc4c2N3CCN4C)cc1 [Compound I-5]	–	–	6.17	3.2	–	–	–	–
COc1ccc(OC)c(CCN2CC[C@H]3[C@@H](C2)c2cccc4c2N3CCN4C)c1 [Compound I-8, (6bR,10aS)-8-(2,5-dimethoxy)-3-methyl-2,3,6b,7,8,9,10,10a-octahydro-1H-pyrido[3′,4′:4,5]pyrrolo[1,2,3-de]quinoxaline]	–	5.51	–	–	–	–	–	–
CN1CCN2c3c(cccc31)[C@@H]1CN(CCc3ccccc3O)CC[C@@H]12 [Compound I-9, 2-(2-((6bR,10aS)-3-methyl-2,3,6b,9,10,10a-hexahydro-1H-pyrido[3′,4′:4,5]pyrrolo[1,2,3-de]quinoxalin-8(7H)-yl)ethyl)phenol]	> 7.00	7.51	7.12	14.4	–	–	–	–
CN1CCN2c3c(cccc31)[C@@H]1CN(CCCc3ccccc3O)CC[C@@H]12 [Compound I-11, 2-(3-((6bR,10aS)-3-methyl-2,3,6b,9,10,10a-hexahydro-1H-pyrido[3′,4′:4,5]pyrrolo[1,2,3-de]quinoxalin-8(7H)-yl)propyl)phenol]	> 7.00	7.05	–	36.8	–	–	–	9.7
